This is an account of results in patent US8129398B2 (priority 2008, dated 2012).

Some results are limits rather than exact numbers.

The target of the experiment is T1, HIV-integrase (Human immunodeficiency virus type 1 group M subtype B, UniProt P12497).
T1 construct: Recombinant integrase (0.26 ng) was incubated with the beads
Kind of experiment: HIV-Integrase Inhibition Activity (SPA bead integration assay with P33 labeled target DNA). The format is biochemical. To be noted: recombinant integrase, class symbols; read-out: in vitro activity. The procedure, abridged:
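Biotinylated substrate DNA on streptavidin SPA beads loaded with recombinant integrase (90 min, 37° C), washed, then inhibitor plus 0.1 fmol P33-labeled target DNA added. Reaction stopped with 10 mM EDTA; integration measured as CPM by scintillation, giving IC50 ranks.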
Consider `CC(C)C(=O)N1CCCC1C(=O)NC12CCC(CC1)Cn1c2nc(C(=O)NCc2ccc(F)cc2)c(O)c1=O` (stereo not drawn) [Example 399], for which the IC50 is below 10 nM.

Take `Cc1cc(CNC(=O)c2nc3n(c(=O)c2O)CC2CCC3(N(C)C(=O)C(=O)N(C)C)CC2)ccc1F` [Example 156, N-(2-((4-Fluoro-3-methylbenzyl)carbamoyl)-3-hydroxy-4-oxo-6,7,8,9-tetrahydro-7,10-ethanopyrimido[1,2-a]azepin-10(4H)-yl)-N,N′,N′-trimethylethanediamide]: the IC50 was below 10 nM. Turning to `CN(C)C(=O)C(=O)NC12CCC(CC1)Cn1c2nc(C(=O)NCc2cccc(-c3ccccc3)c2)c(O)c1=O` [Example 388], the IC50 is below 10 nM. On to `Cc1cc(CNC(=O)c2nc3n(c(=O)c2O)CC2CCC3(NC(=O)[C@H]3CCN(C(=O)c4cc(C)n(C)n4)C3)CC2)ccc1F` [Example 301, 7,10-Ethanopyrimido[1,2-a]azepine-2-carboxamide, 10-[[[(3S)-1-[(1,5-dimethyl-1H-pyrazol-3-yl)carbonyl]-3-pyrrolidinyl]carbonyl]amino]-N-[(4-fluoro-3-methylphenyl)methyl]-4,6,7,8,9,10-hexahydro-3-hydroxy-4-oxo-], for which the IC50 fell in the range of 10 to 100 nM. Take `O=C(NCc1ccc(F)cc1)c1nc2n(c(=O)c1O)CC1CCC2(NC(=O)C2CCCN2C(=O)C2CCC2)CC1` (stereo not drawn) [Example 400]: the IC50 is below 10 nM. For the compound `Cn1cnc(C(=O)NC23CCC(CC2)Cn2c3nc(C(=O)NCc3ccc(F)cc3)c(O)c2=O)n1` [Example 54, N-(4-Fluorobenzyl)-3-hydroxy-10-(((1-methyl-1H-1,2,4-triazol-3-yl)carbonyl)amino)-4-oxo-4,6,7,8,9,10-hexahydro-7,10-ethanopyrimido[1,2-a]azepine-2-carboxamide], the IC50 was below 10 nM.

Consider `CCCS(=O)(=O)N1CCCC1C(=O)NC12CCC(CC1)Cn1c2nc(C(=O)NCc2ccc(F)cc2)c(O)c1=O` (stereo not drawn) [Example 404], for which the IC50 is below 10 nM. With `CC(C)CNC(=O)c1nc2n(c(=O)c1O)CC1CCC2(NC(=O)C(=O)N(C)C)CC1` [Example 341], the IC50 is above 100 nM. Turning to `Cc1noc(C)c1S(=O)(=O)N1CCN(C(=O)C(=O)NC23CCC(CC2)Cn2c3nc(C(=O)NCc3ccc(F)cc3)c(O)c2=O)CC1` [Example 146, 10-(((4-((3,5-Dimethyl-4-isoxazolyl)sulfonyl)-1-piperazinyl)(oxo)acetyl)amino)-N-(4-fluorobenzyl)-3-hydroxy-4-oxo-4,6,7,8,9,10-hexahydro-7,10-ethanopyrimido[1,2-a]azepine-2-carboxamide], the IC50 is below 10 nM. The figure for `CN(C)C(=O)C(=O)NC12CCC(CC1)Cn1c2nc(C(=O)NCCc2ccc(Cl)cc2)c(O)c1=O` [Example 345] is 10 to 100 nM; for `CNC1c2nc(C(=O)NCc3ccc(F)cc3)c(O)c(=O)n2CC2CCC1C2` (stereo not drawn) [Example 9, 7,10-Methano-4H-pyrimido[1,2-a]azocine-2-carboxamide, N-[(4-fluorophenyl)methyl]-6,7,8,9,10,11-hexahydro-3-hydroxy-11-(methylamino)-4-oxo-] it is above 100 nM.

On to `CN(C)C(=O)C(=O)NC12CCC(CC1)Cn1c2nc(C(=O)NCCCc2ccc(Cl)c(Cl)c2)c(O)c1=O` [Example 131, N′-(2-((3-(3,4-Dichlorophenyl)propyl)carbamoyl)-3-hydroxy-4-oxo-6,7,8,9-tetrahydro-7,10-ethanopyrimido[1,2-a]azepin-10(4H)-yl)-N,N-dimethylethanediamide], for which the IC50 lay within 10 to 100 nM.

With `CC(=O)N1CC[C@H](C(=O)NC23CCC(CC2)Cn2c3nc(C(=O)NCc3ccc(F)c(C)c3)c(O)c2=O)C1` [Example 282, 7,10-Ethanopyrimido[1,2-a]azepine-2-carboxamide, 10-[[[(3S)-1-acetyl-3-pyrrolidinyl]carbonyl]amino]-N-[(4-fluoro-3-methylphenyl)methyl]-4,6,7,8,9,10-hexahydro-3-hydroxy-4-oxo-], the IC50 was below 10 nM. For the compound `O=C(NC12CCC(CCn3c1nc(C(=O)NCc1ccc(F)cc1)c(O)c3=O)C2)C(=O)N1CC[C@H](F)C1` (stereo partly drawn) [Example 207, 8,11-Methano-4H-pyrimido[1,2-a]azocine-2-carboxamide, N-[(4-fluorophenyl)methyl]-11-[[2-[(3S)-3-fluoro-1-pyrrolidinyl]-1,2-dioxoethyl]amino]-6,7,8,9,10,11-hexahydro-3-hydroxy-4-oxo-], the IC50 was below 10 nM. As to `CCN(CC)C(=O)C(=O)NC12CCC(CCn3c1nc(C(=O)NCc1ccc(F)cc1)c(O)c3=O)C2` (stereo not drawn) [Example 201], the IC50 is below 10 nM. With `Cn1cccc1C(=O)C(=O)NC12CCC(CC1)Cn1c2nc(C(=O)NCc2ccc(F)cc2)c(O)c1=O` [Example 45, N-(4-Fluorobenzyl)-3-hydroxy-10-(((1-methyl-1H-pyrrol-2-yl) (oxo)acetyl)amino)-4-oxo-4,6,7,8,9,10-hexahydro-7,10-ethanopyrimido[1,2-a]azepine-2-carboxamide], the IC50 is below 10 nM.

In the case of `O=C(NC12CCC(CC1)Cn1c2nc(C(=O)NCc2ccc(F)cc2)c(O)c1=O)C(=O)N1CCN(S(=O)(=O)c2ccc(S(=O)(=O)N3CCOCC3)cc2)CC1` [Example 149, N-(4-Fluorobenzyl)-3-hydroxy-10-(((4-((4-(4-morpholinylsulfonyl)phenyl)sulfonyl)-1-piperazinyl)(oxo)acetyl)amino)-4-oxo-4,6,7,8,9,10-hexahydro-7,10-ethanopyrimido[1,2-a]azepine-2-carboxamide], the IC50 is below 10 nM. With `COC1CN(C(=O)C(=O)NC23CCC(CC2)Cn2c3nc(C(=O)NCc3ccc(F)cc3)c(O)c2=O)C1` [Example 66, N-(4-Fluorobenzyl)-3-hydroxy-10-(((3-methoxy-1-azetidinyl) (oxo)acetyl)amino)-4-oxo-4,6,7,8,9,10-hexahydro-7,10-ethanopyrimido[1,2-a]azepine-2-carboxamide], the IC50 is below 10 nM.

For `Cc1cc(CNC(=O)c2nc3n(c(=O)c2O)CC2CCC3(NC(=O)Nc3ccccn3)CC2)ccc1F` [Example 325, 7,10-Ethanopyrimido[1,2-a]azepine-2-carboxamide, N-[(4-fluoro-3-methylphenyl)methyl]-4,6,7,8,9,10-hexahydro-3-hydroxy-4-oxo-10-[[(2-pyridinylamino)carbonyl]amino]-], the IC50 was below 10 nM. For `Cn1nnnc1C(=O)NC12CCC(CC1)Cn1c2nc(C(=O)NCc2ccc(F)cc2)c(O)c1=O` [Example 249, 7,10-Ethanopyrimido[1,2-a]azepine-2-carboxamide, N-[(4-fluorophenyl)methyl]-4,6,7,8,9,10-hexahydro-3-hydroxy-10-[[(1-methyl-1H-tetrazol-5-yl)carbonyl]amino]-4-oxo-], the IC50 was below 10 nM. With `O=C(NCc1ccc(F)cc1)c1nc2n(c(=O)c1O)CC1CCC2(NC(=O)C2CCCN2C(=O)C2CC2)CC1` (stereo not drawn) [Example 407], the IC50 was below 10 nM.

Consider `CN(C)C(=O)C(=O)NC12CCC(CC1)Cn1c2nc(C(=O)NCCc2ccccc2)c(O)c1=O` [Example 343], for which the IC50 fell in the range of 10 to 100 nM. In the case of `CN(C)C(=O)C(=O)NC12CCC(CC1)Cn1c2nc(C(=O)NCc2ccc(F)c(F)c2)c(O)c1=O` [Example 111, N′-(2-((3,4-Difluorobenzyl)carbamoyl)-3-hydroxy-4-oxo-6,7,8,9-tetrahydro-7,10-ethanopyrimido[1,2-a]azepin-10(4H)-yl)-N,N-dimethylethanediamide], the IC50 was below 10 nM.

As for `CN(C)C(=O)C(=O)NC12CCC(CC1)Cn1c2nc(C(=O)NCc2ccc3c(c2)OCO3)c(O)c1=O` [Example 362], the IC50 was below 10 nM.

Take `CN(C)C(=O)C(=O)NC12CCC(CC1)Cn1c2nc(C(=O)NCc2ccccc2-c2ccccc2)c(O)c1=O` [Example 387]: the IC50 was below 10 nM. As for `COc1cnc(Cl)c2[nH]cc(C(=O)C(=O)NC34CCC(CC3)Cn3c4nc(C(=O)NCc4ccc(F)cc4)c(O)c3=O)c12` [Example 47, 10-(((7-Chloro-4-methoxy-1H-pyrrolo[2,3-c]pyridin-3-yl)(oxo)acetyl)amino)-N-(4-fluorobenzyl)-3-hydroxy-4-oxo-4,6,7,8,9,10-hexahydro-7,10-ethanopyrimido[1,2-a]azepine-2-carboxamide], the IC50 was below 10 nM. Consider `Cc1cc(CNC(=O)c2nc3n(c(=O)c2O)CC2CCC3(NC(=O)C(=O)N(C)CC(F)(F)F)CC2)ccc1F` [Example 51, N′-(2-((4-Fluoro-3-methylbenzyl)carbamoyl)-3-hydroxy-4-oxo-6,7,8,9-tetrahydro-7,10-ethanopyrimido[1,2-a]azepin-10(4H)-yl)-N-methyl-N-(2,2,2-trifluoroethyl)ethanediamide], for which the IC50 was below 10 nM.

For the compound `COCC1(C(=O)NC23CCC(CC2)Cn2c3nc(C(=O)NCc3ccc(F)c(C)c3)c(O)c2=O)CC1` [Example 302, 7,10-Ethanopyrimido[1,2-a]azepine-2-carboxamide, N-[(4-fluoro-3-methylphenyl)methyl]-4,6,7,8,9,10-hexahydro-3-hydroxy-10-[[[1-(methoxymethyl)cyclopropyl]carbonyl]amino]-4-oxo-], the IC50 is below 10 nM. Take `CCN(C)C(=O)C(=O)NC12CCC(CCn3c1nc(C(=O)NCc1ccc(F)cc1)c(O)c3=O)C2` (stereo not drawn) [Example 204]: the IC50 was below 10 nM. With `CN(C)C(=O)C(=O)NC12CCC(CC1)Cn1c2nc(C(=O)NCc2ccc(O)cc2)c(O)c1=O` [Example 390], the IC50 was in the range of 10 to 100 nM. Turning to `CC(=O)NC12CCC(CC1)Cn1c2nc(C(=O)NCc2ccc(F)cc2)c(O)c1=O` [Example 20, 10-(Acetylamino)-N-(4-fluorobenzyl)-3-hydroxy-4-oxo-4,6,7,8,9,10-hexahydro-7,10-ethanopyrimido[1,2-a]azepine-2-carboxamide], the IC50 was below 10 nM.

As for `O=C(NC12CCC(CC1)Cn1c2nc(C(=O)NCc2ccc(F)cc2)c(O)c1=O)C(=O)N1CC[C@@H](F)C1` [Example 104, N-(4-Fluorobenzyl)-10-((((3R)-3-fluoro-1-pyrrolidinyl)(oxo)acetyl)amino)-3-hydroxy-4-oxo-4,6,7,8,9,10-hexahydro-7,10-ethanopyrimido[1,2-a]azepine-2-carboxamide], the IC50 was below 10 nM.

Turning to `CN(C)C(=O)C(=O)NC12CCC(CC1)Cn1c2nc(C(=O)NC2CCN(Cc3ccccc3)C2)c(O)c1=O` (stereo not drawn) [Example 356], the IC50 was above 100 nM.
